Test results reported in patent US20050182252A1, “Novel 2'-C-methyl nucleoside derivatives” (priority 2004, published 2005).
“Also recorded” adds a separate entry of the source.

How the values were obtained:
[1] = design: species or system C57BL/6 mice; conditions: C57BL/6, mouse, in vivo, ip, 30 mg/kg
Experimental: The liver specificity of the compound 19 prodrug was compared relative to the parent nucleoside, 2′-C-methylguanosine, and for compound 21.1 prodrug relative to its parent nucleoside, 2′-C-methyladenosine, by measuring the generation of NTP in the liver compared to nucleoside in the plasma.
Compound 19 or 2′-C-methylguanosine were administered intraperitoneally to C57BL/6 mice at a dose of 30 mg/kg based on nucleoside equivalents (30 mg/kg 2′-C-methylguanosine and 53.27 mg/kg compound 19). Compound 21.1 or 2′-C-methyladenosine were administered intravenously to C57BL/6 mice at dose of about 5.5 mg/kg nucleoside equivalents (5.5 mg/kg 2′-C-methyladenosine and 10 mg/kg compound 21.1). Plasma concentrations of 2′-C-methylguanosine, compound 19, 2′-C-methyladenosine, and compound 21.1 were determined by HPLC-UV and the liver concentrations of the 5′-triphosphate of 2′-C-methylguanosine and 2′-C-methyladenosine were measured by LC-MS using the standard ion-pairing chromatography method for triphosphate as described in Example E. Conventional SAX HPLC-UV could not differentiate between endogenous GTP and 2′-C-methylguanosine triphosphate. Since an authentic standard of 2′-C-methylguanosine triphosphate was not available, the liver concentrations of the nucleotide were approximated as described in Example E.

HCV = assay: HCV-infected human liver slice assay (HCV RNA in culture medium); format: cell-based; conditions: for Log10 decrease in viral RNA from control at 48-72 h: HCV RNA in culture medium of HCV-infected human liver slices
Experimental: Inhibition of HCV replication in human liver tissue was evaluated using the following assay.
Liver from a brain-dead HCV antibody-positive human patient was perfused with ice-cold Viaspan (Dupont Pharmaceutical) preservation solution and received on ice in Viaspan.
Precision-cut liver slices of ˜200-250 μm thickness and […] diameter were prepared and cultured in Waymouth's cell culture medium (Gibco, Inc.) that was supplemented with 10% fetal bovine serum and 10 mL/L Fungi-Bact at 37° C., and gassed with carbogen (95% O2, 5% CO2) at 0.75 liters/min. Tissue slices were maintained in culture for 72 h. Cell culture medium containing test compound in solution was changed on a daily basis.
At appropriate times of liver slice incubation, liver slices and medium were collected for analysis of HCV RNA (tissue and medium) and nucleotide levels (NTP). All collected media and tissue slices were maintained in liquid N2 until analysis.
Medium and tissue samples were analyzed for HCV RNA levels according to published procedures (Bonacini et. al., 1999) which utilize an automated, multicycle, polymerase chain reaction (PCR)-based technique. This assay has a lower limit of detection for HCV RNA of 100 viral copies/ml.

Liver Targeting Index (Liver/Plasma) [1]: 26.2
Prodrug Improvement (Fold) [1]: 30 Fold
Compound: C[C@@]1(O)[C@H](O)[C@@H](CO[P@]2(=O)OCC[C@H](c3cccc(Cl)c3)O2)O[C@H]1n1cnc2c(=O)[nH]c(N)nc21 (relative stereo) [Compound 19, cis-5′-O-[4-(3-Chlorophenyl)-2-oxo-1,3,2-dioxaphosphorinan-2-yl]-2′-C-methyl-guanosine]
Log10 decrease in viral RNA from control at 48-72 h (HCV; 0.25 μM compound): 1.27 Log10
Log10 decrease in viral RNA from control at 48-72 h (HCV; 1 μM compound): 1.61 Log10
Log10 decrease in viral RNA from control at 48-72 h (HCV; 2.5 μM compound): 1.70 Log10
Log10 decrease in viral RNA from control at 48-72 h (HCV; 25 μM compound): 1.72 Log10
HCV RNA levels in the liver slice culture media versus control, untreated slices (HCV; in words, treatment for 72 h): decreased; also recorded: more effective than treatment with the nucleoside
